These molecules were tested on Ramos cells (assay: Cytotoxicity in Ramos cells (cell death)).
Assay type: cell-based
Experimental: The compounds listed in Table 7 were tested for cytotoxicity in Ramos cells. The assay was conducted as described in K. M. Johnson et al. Chemistry & Biology 2005, 12, 485-496.

SMILES	EC50 [µM]
O=C(N=C(Nc1ccc2[nH]c(=O)[nH]c2c1)Nc1ccccc1C(F)(F)F)c1ccc(Br)cc1 [Compound I-1]	> 10
O=C(N=C(Nc1ccc2[nH]c(=O)[nH]c2c1)Nc1ccccc1C(F)(F)F)c1ccc(Cl)cc1 [Compound I-2]	> 10
O=C(N=C(Nc1ccc2[nH]c(=O)[nH]c2c1)Nc1ccccc1C(F)(F)F)c1cccc(Cl)c1 [Compound I-3]	> 10
O=C(N=C(Nc1ccc2[nH]c(=O)[nH]c2c1)Nc1ccccc1C(F)(F)F)c1ccc(F)cc1 [Compound I-4]	< 10
CC(C)(C)c1ccccc1NC(=NC(=O)c1ccc(Br)cc1)Nc1ccc2[nH]c(=O)[nH]c2c1 [Compound I-5]	< 10
CC(C)(C)c1ccccc1NC(=NC(=O)c1ccc(Cl)cc1)Nc1ccc2[nH]c(=O)[nH]c2c1 [Compound I-6]	< 10
CC(C)(C)c1ccccc1NC(=NC(=O)c1cccc(Cl)c1)Nc1ccc2[nH]c(=O)[nH]c2c1 [Compound I-7]	< 10
CC(C)(C)c1ccccc1NC(=NC(=O)c1ccc(F)cc1)Nc1ccc2[nH]c(=O)[nH]c2c1 [Compound I-8]	< 10
O=C(N=C(Nc1ccc2ccccc2c1)Nc1ccc2[nH]c(=O)[nH]c2c1)c1ccc(Br)cc1 [Compound I-9]	> 10
O=C(N=C(Nc1ccc2ccccc2c1)Nc1ccc2[nH]c(=O)[nH]c2c1)c1ccc(Cl)cc1 [Compound I-10]	> 10
O=C(N=C(Nc1ccc2ccccc2c1)Nc1ccc2[nH]c(=O)[nH]c2c1)c1ccc(F)cc1 [Compound I-12]	> 10
O=C(N=C(Nc1ccc(-c2ccccc2)cc1)Nc1ccc2[nH]c(=O)[nH]c2c1)c1ccc(Br)cc1 [Compound I-13]	> 10
O=C(N=C(Nc1ccc(-c2ccccc2)cc1)Nc1ccc2[nH]c(=O)[nH]c2c1)c1ccc(Cl)cc1 [Compound I-14]	> 10
O=C(N=C(Nc1ccc(-c2ccccc2)cc1)Nc1ccc2[nH]c(=O)[nH]c2c1)c1cccc(Cl)c1 [Compound I-15]	> 10
O=C(N=C(Nc1ccc(-c2ccccc2)cc1)Nc1ccc2[nH]c(=O)[nH]c2c1)c1ccc(F)cc1 [Compound I-16]	> 10
O=C(N=C(Nc1ccc2[nH]c(=O)oc2c1)Nc1ccccc1C(F)(F)F)c1ccc(Br)cc1 [Compound I-17]	< 10
O=C(N=C(Nc1ccc2[nH]c(=O)oc2c1)Nc1ccccc1C(F)(F)F)c1ccc(Cl)cc1 [Compound I-18]	< 10
O=C(N=C(Nc1ccc2[nH]c(=O)oc2c1)Nc1ccccc1C(F)(F)F)c1cccc(Cl)c1 [Compound I-19]	< 10
O=C(N=C(Nc1ccc2[nH]c(=O)oc2c1)Nc1ccccc1C(F)(F)F)c1ccc(F)cc1 [Compound I-20]	> 10
CC(C)(C)c1ccccc1NC(=NC(=O)c1ccc(Br)cc1)Nc1ccc2[nH]c(=O)oc2c1 [Compound I-21]	< 10
CC(C)(C)c1ccccc1NC(=NC(=O)c1ccc(Cl)cc1)Nc1ccc2[nH]c(=O)oc2c1 [Compound I-22]	< 10
CC(C)(C)c1ccccc1NC(=NC(=O)c1cccc(Cl)c1)Nc1ccc2[nH]c(=O)oc2c1 [Compound I-23]	< 10
CC(C)(C)c1ccccc1NC(=NC(=O)c1ccc(F)cc1)Nc1ccc2[nH]c(=O)oc2c1 [Compound I-24]	< 10
O=C(N=C(Nc1ccc2ccccc2c1)Nc1ccc2[nH]c(=O)oc2c1)c1ccc(Br)cc1 [Compound I-25]	< 10

SMILES	EC50 [µM]
O=C(N=C(Nc1ccc2ccccc2c1)Nc1ccc2[nH]c(=O)oc2c1)c1ccc(Cl)cc1 [Compound I-26]	< 10
O=C(N=C(Nc1ccc2ccccc2c1)Nc1ccc2[nH]c(=O)oc2c1)c1cccc(Cl)c1 [Compound I-27]	< 10
O=C(N=C(Nc1ccc2ccccc2c1)Nc1ccc2[nH]c(=O)oc2c1)c1ccc(F)cc1 [Compound I-28]	< 10
O=C(N=C(Nc1ccc(-c2ccccc2)cc1)Nc1ccc2[nH]c(=O)oc2c1)c1ccc(Br)cc1 [Compound I-29]	< 10
O=C(N=C(Nc1ccc(-c2ccccc2)cc1)Nc1ccc2[nH]c(=O)oc2c1)c1ccc(Cl)cc1 [Compound I-30]	< 10
O=C(N=C(Nc1ccc(-c2ccccc2)cc1)Nc1ccc2[nH]c(=O)oc2c1)c1cccc(Cl)c1 [Compound I-31]	< 10
O=C(N=C(Nc1ccc(-c2ccccc2)cc1)Nc1ccc2[nH]c(=O)oc2c1)c1ccc(F)cc1 [Compound I-32]	< 10
O=C(N=C(Nc1cccc(C(F)(F)F)c1)Nc1ccc2[nH]c(=O)oc2c1)c1ccc(C(F)(F)F)cc1 [Compound I-85]	< 10
CC(C)(C)c1ccccc1NC(=NC(=O)c1ccc(C(F)(F)F)cc1)Nc1ccc2[nH]c(=O)oc2c1 [Compound I-86]	< 10
O=C(N=C(Nc1ccc(Cl)cc1)Nc1ccc2[nH]c(=O)oc2c1)c1ccc(C(F)(F)F)cc1 [Compound I-87]	< 10
O=C(N=C(Nc1cccc(Cl)c1)Nc1ccc2[nH]c(=O)oc2c1)c1ccc(C(F)(F)F)cc1 [Compound I-88]	< 10
O=C(N=C(Nc1cccc(C(F)(F)F)c1)Nc1ccc2[nH]c(=O)oc2c1)c1ccc(Cl)cc1 [Compound I-89]	< 10
O=C(N=C(Nc1ccc(Cl)cc1)Nc1ccc2[nH]c(=O)oc2c1)c1ccc(Cl)cc1 [Compound I-90]	> 10
O=C(N=C(Nc1cccc(Cl)c1)Nc1ccc2[nH]c(=O)oc2c1)c1ccc(Cl)cc1 [Compound I-91]	< 10
O=C(N=C(Nc1ccc2[nH]c(=O)oc2c1)Nc1ccccc1C(F)(F)F)c1ccc(C(F)(F)F)cc1 [Compound I-92]	< 10
O=C(N=C(Nc1ccc2[nH]c(=O)oc2c1)Nc1ccccc1Cl)c1ccc(C(F)(F)F)cc1 [Compound I-93]	< 10
O=C(N=C(Nc1cc(F)cc(Cl)c1)Nc1ccc2[nH]c(=O)oc2c1)c1ccc(C(F)(F)F)cc1 [Compound I-94]	< 10
CC(C)(C)c1ccccc1NC(=NC(=O)c1cccc(C(F)(F)F)c1)Nc1ccc2[nH]c(=O)oc2c1 [Compound I-95]	< 10
CC(C)(C)c1ccccc1NC(=NC(=O)c1cccc(F)c1)Nc1ccc2[nH]c(=O)oc2c1 [Compound I-96]	< 10
CC(C)(C)c1ccccc1NC(=NC(=O)c1ccc(F)c(F)c1)Nc1ccc2[nH]c(=O)oc2c1 [Compound I-98]	< 10
O=C(N=C(Nc1ccc2[nH]c(=O)oc2c1)Nc1ccc(Cl)cc1F)c1cccc(C(F)(F)F)c1 [Compound I-99]	> 10
CC(C)(C)c1ccccc1NC(=NC(=O)c1cccc(C#N)c1)Nc1ccc2[nH]c(=O)oc2c1 [Compound I-100]	< 10
N#Cc1cccc(C(=O)N=C(Nc2ccc3[nH]c(=O)oc3c2)Nc2ccccc2C(F)(F)F)c1 [Compound I-101]	> 10
N#Cc1cccc(C(=O)N=C(Nc2cccc(C(F)(F)F)c2)Nc2ccc3[nH]c(=O)oc3c2)c1 [Compound I-102]	< 10

SMILES	EC50 [µM]
CC(C)(C)c1ccccc1NC(=NC(=O)c1ccc(C#N)cc1)Nc1ccc2[nH]c(=O)oc2c1 [Compound I-103]	< 10
N#Cc1ccc(C(=O)N=C(Nc2ccc3[nH]c(=O)oc3c2)Nc2ccccc2C(F)(F)F)cc1 [Compound I-104]	< 10
N#Cc1ccc(C(=O)N=C(Nc2cccc(C(F)(F)F)c2)Nc2ccc3[nH]c(=O)oc3c2)cc1 [Compound I-105]	> 10
CC(C)(C)c1ccccc1NC(=NC(=O)c1ccc(C(F)(F)F)c(F)c1)Nc1ccc2[nH]c(=O)oc2c1 [Compound I-106]	< 10
CC(C)(C)c1ccccc1NC(=NC(=O)c1ccc(C(F)(F)F)cc1F)Nc1ccc2[nH]c(=O)oc2c1 [Compound I-107]	< 10
CC(C)(C)c1cccc(NC(=NC(=O)c2ccc(C(F)(F)F)c(F)c2)Nc2ccc3[nH]c(=O)oc3c2)c1 [Compound I-108]	< 10
O=C(N=C(Nc1cccc(C2CC2)c1)Nc1ccc2[nH]c(=O)oc2c1)c1cccc(C(F)(F)F)c1 [Compound I-109]	< 10
N#Cc1cccc(C(=O)N=C(Nc2cccc(C3CC3)c2)Nc2ccc3[nH]c(=O)oc3c2)c1 [Compound I-110]	< 10
CC(C)(C)c1cccc(NC(=NC(=O)c2cccc(C#N)c2)Nc2ccc3[nH]c(=O)oc3c2)c1 [Compound I-111]	< 10
N#Cc1cccc(C(=O)N=C(Nc2ccc3[nH]c(=O)oc3c2)Nc2ccccc2C2CC2)c1 [Compound I-112]	< 10
N#Cc1cccc(C(=O)N=C(Nc2ccc3[nH]c(=O)oc3c2)Nc2ccccc2Cl)c1 [Compound I-113]	< 10
N#Cc1cccc(C(=O)N=C(Nc2cccc(Cl)c2)Nc2ccc3[nH]c(=O)oc3c2)c1 [Compound I-114]	< 10
N#Cc1cccc(C(=O)N=C(Nc2ccc(Cl)cc2)Nc2ccc3[nH]c(=O)oc3c2)c1 [Compound I-115]	< 10
N#Cc1cccc(C(=O)N=C(Nc2cc(Cl)cc(Cl)c2)Nc2ccc3[nH]c(=O)oc3c2)c1 [Compound I-116]	> 10
N#Cc1cccc(C(=O)N=C(Nc2ccc(C(F)(F)F)cc2)Nc2ccc3[nH]c(=O)oc3c2)c1 [Compound I-118]	> 10
CC(C)(C)c1ccc(NC(=NC(=O)c2cccc(C#N)c2)Nc2ccc3[nH]c(=O)oc3c2)cc1 [Compound I-119]	< 10
CC(C)(C)c1cccc(NC(=NC(=O)c2ccc(C(F)(F)F)cc2)Nc2ccc3[nH]c(=O)oc3c2)c1 [Compound I-120]	< 10
O=C(N=C(Nc1ccc2[nH]c(=O)oc2c1)Nc1ccccc1C1CC1)c1ccc(C(F)(F)F)cc1 [Compound I-121]	< 10
O=C(N=C(Nc1cc(Cl)cc(Cl)c1)Nc1ccc2[nH]c(=O)oc2c1)c1ccc(C(F)(F)F)cc1 [Compound I-125]	< 10
CC(C)(C)c1ccc(NC(=NC(=O)c2ccc(C(F)(F)F)cc2)Nc2ccc3[nH]c(=O)oc3c2)cc1 [Compound I-128]	< 10
CC(C)(C)c1ccccc1NC(=NC(=O)c1ccc(C(F)(F)F)cc1)Nc1ccc2oc(=O)[nH]c2c1 [Compound I-129]	< 10
CC(C)(C)c1ccccc1NC(=NC(=O)c1cccc(C#N)c1)Nc1ccc2oc(=O)[nH]c2c1 [Compound I-130]	> 10
CC(C)(C)c1ccccc1NC(=NC(=O)c1ccc(C(F)(F)F)c(F)c1)Nc1ccc2oc(=O)[nH]c2c1 [Compound I-131]	< 10
